Laboratory results published in patent US20150342897A1, “POLYPEPTIDE LOADED POCA NANOPARTICLES FOR ORAL ADMINISTRATION” (Glaxo Group Limited, priority 2012, published 2015).

Test: Reduction in blood glucose levels after single i.v. dose
Type: in vivo, C57BL/6 mice
Conditions: single i.v. dose equivalent to 1 μg/100 μl
Experimental: C57BL/6 mice were given a single i.v. dose of exendin-4 loaded POCA nanoparticles (equivalent to 2 μg peptide/100 μl), non encapsulated (free) exendin-4 peptide (equivalent to 1 μg/100 μl) or saline as a control. In order to monitor blood glucose levels, 2-3 μl blood samples were taken from the peripheral tail vein of each animal prior to dosing and again at 0.5, 1, 2, 3, 4 and 8 hours post dose. Each sample was analysed using a hand held glucose monitor (BAYER […] BREEZE 2TM).

With exendin-4 [non encapsulated exendin-4] the “reduction in blood glucose levels from baseline” value (2 hours post dose, FIG. 3) was roughly 30% and the “blood glucose levels at 8 hours post dose” value (8 hours post dose) was “returned to baseline”.
